# According to patent publication US4847306A, “Antihypercholesterolemic compounds” (Merck & Co., Inc., priority 1988, dated 1989):
# Test system: HMG-CoA reductase
# Assay: HMG-CoA Reductase Inhibition Assay (in vitro, intrinsic inhibitory activity)
# Type: biochemical
# Conditions: compactin assigned a value of 100; IC50 of test compound compared with that of compactin determined simultaneously; tested as sodium salt of dihydroxy acid form; solubilized rat liver microsomal enzyme
# Method: The intrinsic HMG-CoA reductase inhibition activity of the claimed compounds is measured in the in vitro protocol published in J. Med. Chem., 28, P. 347-358 (1985) and described below:
# Isolation of HMG-CoA Reductase. Male Holtzman Sprague-Dawley rate (225-250 g) were kept on reversed lighting and fed Purina rat chow containing 3% cholestyramine for 7 days preceding their sacrifice by CO2 asphyxiation. Livers were removed 6 hours into the dark cycle and used immediately to prepare microsomes. HMG-CoA reductase was solubilized from the freshly prepared microsome by the method of Heller and Shrewsbury [J. Boil Chem., 1976, 251,3815], and purified through the second ammonium sulfate precipitation step as described by Kleinsek et al., [Proc. Natl. Acad. Sci. USA, 1977, 74, 1431]. The enzyme preparation was tested for HMG-CoA reductase potency and diluted with 100 mM phosphate buffer (pH 7.2) so that 100 μL of the enzyme solution, when added to the assay control, gave a value of 50,000-60,000 dpm. The enzyme preparation was stored at -80° C.
# HMG-CoA Reductase Inhibition Assay. The assay is essentially the procedure of Shefer et al., [J. Lipid Res., 1972, 13, 402]. The complete assay medium contained the following in a total volume of 0.8 mL: phosphate buffer, pH 7.2, 100 mM; MgCl2, 3 mM; NADP, 3 mM; glucose 6-phospate, 10 mM; glucose-6-phosphate dehydrogenase, 3 enzyme units; reduced glutathione, 50 mM; HMG-CoA (glutaryl-3-^14C, New England Nuclear), 0.2 mM (0.1 μCi); and partially purified enzyme stock solution, 100 μL.
# Test compounds or compactin (after first being converted to the sodium salt of their dihydroxy acid form in situ by addition of 1N NaOH (1 equiv)) were added to the assay system in 10-μL volumes at multiconcentration levels. After a 40-minute incubation at 37° C. with shaking and exposure to air, the reaction was stopped by the addition of 0.4 mL of 8N HCl. After an additional 30-minute incubation period at 37° C. to ensure the complete lactonization of mevalonic acid to mevalonolactone, 0.2 mL of the mixture was added to an 0.5×5.0 cm column containing 100-200-mesh Bio-Rex 5, chloride form (Bio-Rad), wetted with distilled water, as described by Alberts et al. [J. Proc. Natl. Acad. Sci. U.S.A., 1980, 77, 3957]. The unreacted [^14 C]HMG-CoA was absorbed on the resin and the [^14 C]mevalonolacetone was eluted with distilled water (2×1 mL) directly into 7-mL scintillation vials. Five milliliters of Aquasol-2 (New England Nuclear) was added to each vial, and radioactivity was measured in a Packard Tri Carb Prias scintillation counter. IC50 values were determined by plotting percentage inhibition against test compound concentration and fitting a straight line to the resulting data by using the least-squares method. For estimation of relative inhibitory potencies, compactin was assigned a value of 100 and the IC50 value of the test compound was compared with that of compactin determined simultaneously.
row,Relative Potency,SMILES
1,76,C[C@H]1C=C2C=C[C@H](C)[C@H](CC[C@@H](O)C[C@@H](O)CC(=O)O)[C@H]2[C@@H](OC(=O)C2(C)CC2)C1
2,171,C[C@H]1C=C2C=C[C@H](C)[C@H](CC[C@@H](O)C[C@@H](O)CC(=O)O)[C@H]2[C@@H](OC(=O)C2(C)CCC2)C1
3,240,CSC1(C(=O)O[C@H]2C[C@@H](C)C=C3C=C[C@H](C)[C@H](CC[C@@H](O)C[C@@H](O)CC(=O)O)[C@H]32)CCC1
4,100,C[C@H]1C=C2C=C[C@H](C)[C@H](CC[C@@H](O)C[C@@H](O)CC(=O)O)[C@H]2[C@@H](OC(=O)C2(CCCO)CCC2)C1
5,200,C[C@H]1C=C2C=C[C@H](C)[C@H](CC[C@@H](O)C[C@@H](O)CC(=O)O)[C@H]2[C@@H](OC(=O)C2(Cc3ccc(O)cc3)CCC2)C1
6,88,C[C@H]1C=C2C=C[C@H](C)[C@H](CC[C@@H](O)C[C@@H](O)CC(=O)O)[C@H]2[C@@H](OC(=O)C2(CO)CCC2)C1
7,156,C[C@H]1C=C2C=C[C@H](C)[C@H](CC[C@@H](O)C[C@@H](O)CC(=O)O)[C@H]2[C@@H](OC(=O)C2(Cc3ccccc3)CCC2)C1
8,188,C[C@H]1C=C2C=C[C@H](C)[C@H](CC[C@@H](O)C[C@@H](O)CC(=O)O)[C@H]2[C@@H](OC(=O)C2(C)CCCC2)C1
9,167,CSC1(C(=O)O[C@H]2C[C@@H](C)C=C3C=C[C@H](C)[C@H](CC[C@@H](O)C[C@@H](O)CC(=O)O)[C@H]32)CCCC1
10,217,C[C@H]1C=C2C=C[C@H](C)[C@H](CC[C@@H](O)C[C@@H](O)CC(=O)O)[C@H]2[C@@H](OC(=O)C2(C)CCCCC2)C1
